This note sets out measurements from patent US20250115598A1 (Anaxis Pharma Pty Ltd, priority 2021, published 2025).

Molecules are shown by their SMILES. pIC50, pKd: −log10 of the molar value.

In one assay the target is human RIPK3 (Homo sapiens (Human), UniProt Q9Y572). In words: KINOMEscan binding assay, human RIPK3. As to conditions: Table 21. The method, boiled down:
(§1)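 KINOMEscan competition binding using kinase-tagged T7 phage or HEK-293-produced DNA-tagged protein captured on ligand beads, with eluted protein quantified by qPCR. Compounds were run as an 11-point 3-fold series, top 30,000 nM, in 1% DMSO. Kd was fitted with the Hill equation, slope fixed at −1.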

Assay [1] deals with Immortalised Mouse Dermal Fibroblasts (MDFs). In words: Cellular assay: inhibition of TSI induced necroptosis, CellTitre-Glo viability. As to conditions: Mus musculus, Fibroblast; MDF, 3 hours TSI cocktail, Table 24; read-out: Inhibition of TSI-induced necroptosis (IC50 cell-based assay) in MDF. On the procedure: Cellular Assay: Screening Compounds for Inhibition of TSI Induced Necroptosis in, 384 Well Plate Format.
• Cell Line ID: Immortalised Mouse Dermal Fibroblasts (MDFs). • Cell Concentration (cells/well): Final cell density is 2200 cells per well. • Cell growth medium: DMEM medium+7.4% Fetal Bovine Serum (FBS). Cells are cultured in Corning 150 cm^2 tissue culture flasks with vented caps at 37° C./10% CO2. • Incubation: Plates were incubated for 30 minutes following addition of compounds and then 3 hours incubation with death stimuli (TSI cocktail) at 37° C./10% CO2 in a humidified incubator. • Compound concentration: 36 μM starting concentration, 1:3 dilution, 10 point • DMSO final concentration (% v/v): 0.3%. Compounds in TSI Cocktail (T: TNF; S: Smac Mimetic; I: IDN-6556) and their Final Concentrations: • rhTNF (100 ng/ml) • Compound a (500 nM)—Smac Mimetic, Tetralogic and SYNthesis Med Chem • IDN-6556 (10 μM)—Selleckchem (S7775)
The cellular assay was carried out according to the following steps: • 1. Each well was prepared by sequential addition of: • a. 40 μL of cell suspension (5.5×10^4 cells/mL) was added to each well to provide a final cell concentration of 2,200 cells per well. • b. After 24 hours, DMSO (control; columns 1-2 and 23-24) or compound in DMSO—addition was performed using acoustic transfer of nL volumes of stock compound to give final test concentrations of 36, 12, 4, 1.3, 0.44, 0.148, 0.049, 0.016, 0.005 and 0.002 μM. All wells were backfilled with DMSO to a final total volume in the well of 100 nL. • c. Following compound/DMSO addition in step (b), Plates were incubated for 30 minutes at 37° C./10% CO2 in a humidified incubator and then 10 μL of 5×TSI cocktail (except to positive controls; columns 2 and 24) was added to each well. • 2. After 3 hours, plate was removed from the 37° C. incubator and equilibrated to room temperature for 15 minutes. • 3. 15 μL of room temperatured CellTitre-Glo2™ (Promega™) was added to each well. • 4. Shook plates for 2 minutes (˜600 rpm) and incubated at room temperature for 15 minutes to allow signal to stabilise. • 5. Read luminescence readout on a plate reader.
Percent viability was calculated for each compound according to equation (2):
[formula] • Wherein RawData is the readout of any cell containing a compound of the invention.
TA is the total activity provided by the luminescence readout from DMSO only wells (columns 2 and 24)=100% viability.
NSA is the non-specific activity provided by DMSO+TSI wells (columns 1 and 23)=0% viability • Curve fitting: 10-point titration curves are fitted with the 4-parameter logistic nonlinear regression model and the IC50 reported is the inflection point of the curve • Analysis: Data was loaded into Dotmatics™ and visualised using the Tibco@ • Spotfire™ software. 10 point titration curves were fitted with the 4 parameter logistic nonlinear regression model and the IC50 reported reflect the inflection point of the curve for curve fitting.
Assay involving the TSI cocktail (T: TNF; S: Smac mimetic; I: IDN-6556): TSI treatment ensures that cells specifically undergo necroptotic cell death. TNF activates the TNF receptor, Smac mimetic directs the signal away from proinflammatory signaling and toward the RIPK1/RIPK3-mediated cell death pathways, and IDN-6556 (Caspase inhibitor) ensures that the apoptotic response is blocked leaving only the programmed necrosis response. The compounds' activity (solution in DMSO) tested in this TSI-induced assay was evaluated by determining the number of viable cells in culture by measuring the amount of ATP present as measured by CelltiterGlo.

A further assay deals with human MLKL (full length) (Homo sapiens (Human), UniProt Q8NB16). In words: KINOMEscan binding assay, human MLKL (full length). As to conditions: KINOMEscan, Table 21; read-out: Human MLKL (full-length) (KD). The method, boiled down:
as §1

The target in another assay is human RIPK1 (Homo sapiens (Human), UniProt Q13546). In words: KINOMEscan binding assay, human RIPK1. The following applies: Table 21. The method, boiled down:
as §1

The target in another assay is endogenous MLKL in MDF (Mus musculus (Mouse), UniProt Q9D2Y4). In words: Degradation assay: endogenous MLKL in MDF (western blot). The following applies: MDF cells, 24 h incubation with compound, MLKL adjusted for loading with GAPDH, normalized to DMSO only control, read-out: Degradation of endogenous MLKL in MDF (DC50 cell-based assay). On the procedure: Degradation Assay: Screening Compounds Procedure to Evaluate the Activity of Compounds in Degrading Endogenous MLKL in Human and Mouse Cell
The mouse dermal fibroblast (MDF) cell line was seeded the day before the experiment in a 24-well plate at a cell density of […] per well in a volume of 0.5 mL per well and left to attach overnight. The human monocyte cell line (U937) was seeded on the day of the experiment in a 24-well plate at a cell density of […] per well in a volume of 0.5 mL per well.
The compound was diluted in DMSO with a starting concentration of 10 mM and titrated stepwise with a dilution of 1:5. 0.5 μL of the compound dilution was added to the appropriate well to achieve a final concentration of 10; 2; 0.4; 0.08 and 0.016 μM. A DMSO only well was included as control.
The cells were incubated for 24 h in the presence of the compound at 37° C. and 10% CO2.
After the 24 h incubation period, the medium was removed and cells washed with 0.5 mL PBS. The cells were then lysed directly in 60 μL of 1×SDS gel loading buffer.
The cell lysate was heat-denatured at […] for 10 min. 10 μL of lysate per well were run on 18-well 4-15% Criterion TGX stain free gels (BIO-RAD). The proteins were then transferred onto nitrocellulose membrane with a wet transfer protocol in the Criterion Blotter (BIO-RAD).
Membranes were blocked with 5% skim milk in TBST. Primary antibody against MLKL (clone 3H1, MABC604 Merck) was used at 1:2000 dilution in TBST with 1% BSA and left shaking over night at 4° C. After washes with TBST, the membranes were incubated with goat anti-rat IgG HRP-conjugated antibody (Southern Biotech) in 1% skim milk TBST at 1:10000 dilution for 1 h at room temperature. After TBST washes the bands were imaged on the ChemiDoc MP Imaging System (BIO-RAD) with Immobilion Western Chemiluminescent HRP Substrate Forte (Millipore). The loading control GAPDH was probed for with rabbit anti-GAPDH (CST 14C10) at 1:2000 dilution in 1% BSA TBST over night at 4° C. TBST washes were followed by incubation with goat anti-rabbit IgG HRP-conjugated antibody (Southern Biotech) in 1% skim milk TBST at 1:10000 dilution for 1 h at room temperature followed by TBST washes. The signal was detected as described above.
The band intensity was measured in the ImageLab Software (BIO-RAD) and the MLKL values adjusted for loading with GAPDH. The percentage of degradation was calculated by normalizing the compound treated values to the DMSO only control.
(In western blotting, separated proteins are transferred to a membrane and probed.)

Sequence of endogenous MLKL in MDF (Q9D2Y4 whole entry): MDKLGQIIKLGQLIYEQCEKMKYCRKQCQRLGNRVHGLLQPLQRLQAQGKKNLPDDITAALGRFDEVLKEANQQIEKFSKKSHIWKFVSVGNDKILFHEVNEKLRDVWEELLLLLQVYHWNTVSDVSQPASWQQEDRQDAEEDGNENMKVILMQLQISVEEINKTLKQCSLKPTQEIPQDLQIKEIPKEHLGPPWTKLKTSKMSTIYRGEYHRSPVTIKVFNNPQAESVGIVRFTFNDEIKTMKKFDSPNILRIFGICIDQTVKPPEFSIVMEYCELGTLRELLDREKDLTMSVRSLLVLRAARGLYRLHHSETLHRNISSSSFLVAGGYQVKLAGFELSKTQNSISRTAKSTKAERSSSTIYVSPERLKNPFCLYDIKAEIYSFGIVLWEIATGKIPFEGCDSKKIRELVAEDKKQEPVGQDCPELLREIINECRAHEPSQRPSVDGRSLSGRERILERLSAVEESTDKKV
Sequence of human MLKL (full length) (Q8NB16 whole entry): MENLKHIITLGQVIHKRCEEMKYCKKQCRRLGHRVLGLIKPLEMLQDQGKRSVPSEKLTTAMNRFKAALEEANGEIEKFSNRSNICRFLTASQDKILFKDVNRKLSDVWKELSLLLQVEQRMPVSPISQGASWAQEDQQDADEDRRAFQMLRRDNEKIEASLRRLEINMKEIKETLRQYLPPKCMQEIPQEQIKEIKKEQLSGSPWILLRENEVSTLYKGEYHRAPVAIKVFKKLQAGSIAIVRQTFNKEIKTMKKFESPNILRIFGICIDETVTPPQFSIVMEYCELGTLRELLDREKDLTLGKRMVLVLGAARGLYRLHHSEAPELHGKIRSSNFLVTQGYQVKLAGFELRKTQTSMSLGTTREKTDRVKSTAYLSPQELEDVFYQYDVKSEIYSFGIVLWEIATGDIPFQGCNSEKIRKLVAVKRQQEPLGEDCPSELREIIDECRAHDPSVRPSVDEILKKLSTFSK
Sequence of human RIPK1 (Q13546 whole entry): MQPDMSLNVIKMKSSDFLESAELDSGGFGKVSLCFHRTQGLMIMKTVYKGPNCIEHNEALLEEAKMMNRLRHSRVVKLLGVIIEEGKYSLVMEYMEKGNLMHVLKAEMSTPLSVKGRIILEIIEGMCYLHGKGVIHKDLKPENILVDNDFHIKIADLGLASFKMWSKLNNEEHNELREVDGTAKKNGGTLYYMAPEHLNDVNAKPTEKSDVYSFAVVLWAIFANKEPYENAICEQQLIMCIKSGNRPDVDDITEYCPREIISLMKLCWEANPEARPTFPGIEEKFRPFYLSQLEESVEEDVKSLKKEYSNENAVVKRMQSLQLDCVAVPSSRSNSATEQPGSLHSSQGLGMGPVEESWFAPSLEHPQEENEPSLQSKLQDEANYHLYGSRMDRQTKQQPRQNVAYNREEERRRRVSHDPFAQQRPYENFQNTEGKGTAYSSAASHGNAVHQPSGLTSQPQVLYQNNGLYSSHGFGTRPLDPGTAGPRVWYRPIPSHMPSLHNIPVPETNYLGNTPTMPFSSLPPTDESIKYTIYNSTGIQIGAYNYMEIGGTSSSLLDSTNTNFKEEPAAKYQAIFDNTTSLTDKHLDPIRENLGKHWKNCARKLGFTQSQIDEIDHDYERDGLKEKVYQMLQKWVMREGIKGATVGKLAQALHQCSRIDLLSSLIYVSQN
Sequence of human RIPK3 (Q9Y572 whole entry): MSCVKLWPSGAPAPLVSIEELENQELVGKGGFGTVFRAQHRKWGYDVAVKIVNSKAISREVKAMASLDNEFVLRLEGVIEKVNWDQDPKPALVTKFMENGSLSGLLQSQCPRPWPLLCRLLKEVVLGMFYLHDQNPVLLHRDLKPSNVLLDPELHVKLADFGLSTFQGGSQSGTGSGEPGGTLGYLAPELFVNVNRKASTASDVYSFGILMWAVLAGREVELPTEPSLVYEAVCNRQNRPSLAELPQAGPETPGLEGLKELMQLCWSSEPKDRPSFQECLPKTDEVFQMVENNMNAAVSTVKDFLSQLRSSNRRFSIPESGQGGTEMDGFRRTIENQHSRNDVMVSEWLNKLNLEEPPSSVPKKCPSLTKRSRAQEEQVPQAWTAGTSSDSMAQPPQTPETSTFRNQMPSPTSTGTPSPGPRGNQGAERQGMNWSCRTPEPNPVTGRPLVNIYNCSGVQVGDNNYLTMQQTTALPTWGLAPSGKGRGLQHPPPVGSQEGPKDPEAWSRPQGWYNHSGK

In the case of `C[C@H](Oc1cc(-c2nn(C)c3c(C#CC4CCN(C)CC4)cnc(N)c23)ccc1NS(=O)(=O)C(F)F)c1ccc(F)cc1` [Compound 80, (S)—N-(4-(4-amino-1-methyl-7-((1-methylpiperidin-4-yl)ethynyl)-1H-pyrazolo[4,3-c]pyridin-3-yl)-2-(1-(4-fluorophenyl)ethoxy)phenyl)-1,1-difluoromethanesulfonamide], the negative-log Kd (pKd) is less than 5.00 at human RIPK3, greater than 9.00 at human MLKL (full length) and less than 5.00 on human RIPK1. Besides, the pIC50 in assay [1] was greater than 6.00.
For `C[C@H](Oc1cc(-c2nn(C)c3c(-c4cnn(C5CCC(C)(C)N(C)C5)c4)cnc(N)c23)ccc1NS(=O)(=O)C(F)F)c1ccc(F)cc1` (some centres unmarked) [Compound 104, N-(4-{4-amino-1-methyl-7-[1-(1,6,6-trimethylpiperidin-3-yl)-1H-pyrazol-4-yl]-1H-pyrazolo[4,3-c]pyridin-3-yl}-2-[(1 S)-1-(4-fluorophenyl)ethoxy]phenyl)-1,1-difluoromethanesulfonamide], the negative logarithm of the Kd (pKd) on human RIPK3 was less than 5.00; at human MLKL (full length), greater than 9.00; at human RIPK1, less than 5.00. The negative logarithm of the IC50 (pIC50) in assay [1] was greater than 6.00.
Consider `CC(=O)N1CCC(n2cc(-c3cnc(N)c4c(-c5ccc(NS(=O)(=O)C(F)F)c(O[C@@H](C)c6ccc(F)cc6)c5)nn(C)c34)cn2)CC1` [Compound 109, (S)—N-(4-(7-(1-(1-acetylpiperidin-4-yl)-1H-pyrazol-4-yl)-4-amino-1-methyl-1H-pyrazolo[4,3-c]pyridin-3-yl)-2-(1-(4-fluorophenyl)ethoxy)phenyl)-1,1-difluoromethanesulfonamide], for which the figures for the pKd at human RIPK3, at human MLKL (full length) and at human RIPK1 were less than 5.00, greater than 9.00 and less than 5.00, respectively. In assay [1], the negative-log IC50 (pIC50) is greater than 6.00.
Regarding `C[C@H](Oc1cc(-c2nn(C)c3c(-c4cnn(C5CCC(N(C)C)C5)c4)cnc(N)c23)ccc1NS(=O)(=O)C(F)F)c1ccc(F)cc1` (stereo partly drawn) [Compound 168, N-(4-(4-amino-7-(1-(3-(dimethylamino)cyclopentyl)-1H-pyrazol-4-yl)-1-methyl-1H-pyrazolo[4,3-c]pyridin-3-yl)-2-((S)-1-(4-fluorophenyl)ethoxy)phenyl)-1,1-difluoromethanesulfonamide], the negative logarithm of the Kd (pKd) at human RIPK3 was less than 5.00; at human MLKL (full length), greater than 9.00; on human RIPK1, less than 5.00. The pIC50 in assay [1] is greater than 6.00.
Consider `Cc1ncsc1-c1ccc(CNC(=O)[C@@H]2C[C@@H](O)CN2C(=O)[C@@H](NC(=O)CCCCCCC#Cc2cnc(N)c3c(-c4ccc(NS(=O)(=O)C(F)F)c(O[C@@H](C)c5ccc(F)cc5)c4)nn(C)c23)C(C)(C)C)cc1` [Compound 1027, (2S,4R)-1-[(2S)-2-(9-{4-amino-3-[4-(difluoromethanesulfonamido)-3-[(1S)-1-(4-fluorophenyl)ethoxy]phenyl]-1-methyl-1H-pyrazolo[4,3-c]pyridin-7-yl}non-8-ynamido)-3,3-dimethylbutanoyl]-4-hydroxy-N-{[4-(4-methyl-1,3-thiazol-5-yl)phenyl]methyl}pyrrolidine-2-carboxamide], for which, at endogenous MLKL in MDF, the DC50 was 1 to 10 µM.
Still for that read-out and setting: under `Cc1ncsc1-c1ccc(CNC(=O)[C@@H]2C[C@@H](O)CN2C(=O)[C@@H](NC(=O)CCCCCCCCC#Cc2cnc(N)c3c(-c4ccc(NS(=O)(=O)C(F)F)c(O[C@@H](C)c5ccc(F)cc5)c4)nn(C)c23)C(C)(C)C)cc1` [Compound 1028, (2S,4R)-1-[(2S)-2-(11-{4-amino-3-[4-(difluoromethanesulfonamido)-3-[(1S)-1-(4-fluorophenyl)ethoxy]phenyl]-1-methyl-1H-pyrazolo[4,3-c]pyridin-7-yl}undec-10-ynamido)-3,3-dimethylbutanoyl]-4-hydroxy-N-{[4-(4-methyl-1,3-thiazol-5-yl)phenyl]methyl}pyrrolidine-2-carboxamide] stands 1 to 10 µM; under `C[C@H](Oc1cc(-c2nn(C)c3c(-c4cnn(CCCCCCCOc5cccc6c5C(=O)N(C5CCC(=O)N(C)C5=O)C6=O)c4)cnc(N)c23)ccc1NS(=O)(=O)C(F)F)c1ccc(F)cc1` (stereo partly drawn) [Compound 1100, N-(4-{4-amino-1-methyl-7-[1-(7-{[2-(1-methyl-2,6-dioxopiperidin-3-yl)-1,3-dioxo-2,3-dihydro-1H-isoindol-4-yl]oxy}heptyl)-1H-pyrazol-4-yl]-1H-pyrazolo[4,3-c]pyridin-3-yl}-2-[(1S)-1-(4-fluorophenyl)ethoxy]phenyl)-1,1-difluoromethanesulfonamide], less than 1 µM; under `C[C@H](Oc1cc(-c2nn(C)c3c(-c4cnn(C5CCN(C(=O)[C@]67C[C@](Nc8cccc9c8C(=O)N(C8CCC(=O)NC8=O)C9=O)(C6)C7)CC5)c4)cnc(N)c23)ccc1NS(=O)(=O)C(F)F)c1ccc(F)cc1` (stereo partly drawn) [Compound 1118, N-[4-(4-amino-7-{1-[1-(3-{[2-(2,6-dioxopiperidin-3-yl)-1,3-dioxo-2,3-dihydro-1H-isoindol-4-yl]amino}bicyclo[1.1.1]pentane-1-carbonyl)piperidin-4-yl]-1H-pyrazol-4-yl}-1-methyl-1H-pyrazolo[4,3-c]pyridin-3-yl)-2-[(1S)-1-(4-fluorophenyl)ethoxy]phenyl]-1,1-difluoromethanesulfonamide], less than 1 µM.

As usually defined, the pKd is the Kd on a negative log10 scale, so that one unit is a factor of ten. The term pIC50 denotes the IC50 on a negative log10 scale, so that one unit is a factor of ten. For orientation: DC50 means the concentration at which degradation of the target reaches its halfway point.
